From patent US8193369B2, “Benzimidazole cannabinoid agonists” (Janssen Pharmaceutica NV, priority 2007, dated 2012)

Key:
[1] = CB1 related side-effects: body temperature lowering, LAD; format: in vivo
Description: CB1 related undesired side-effects such as lowering of body temperature, flat body posture, and mydriasis were measured for a number of compounds of the present invention and a number of compounds covered by reference WO-2006/048754.

[2] = target: T1, human CB2 (hCB2) receptor (Homo sapiens, UniProt P34972); assay: Inhibition of forskolin-activated cAMP production upon activation of human CB2 receptor (HTRF); format: cell-based; conditions: CHO-K1 cells stably transfected with hCB2; 15 μM forskolin; pEC50=-log(EC50); relative to WIN55212-2
T1 construct: expressed in transfected cells; host or cells: CHO-K1
Description: D. Pharmacological Examples D.1 Inhibition of cAMP in Response to Activation of the Human CB2 Receptors
Functional activity of the test compounds was assessed by measuring their potency to inhibit forskolin-activated cAMP production upon activation of human CB2 (hCB2) receptor through homogenous time resolved fluorescence (HTRF) assays.
CHO-K1 cells stably transfected with hCB2 were grown up to 80-90% confluence in T175 Falcon flasks in DMEM/NUT MIX F-12 culture medium complemented with 2% Solution A (5.10^6 IU/l penicillin G, 5 g/l streptomycin sulphate, 5.5 g/l pyruvate, 14.6 g/l L-glutamine, 1M NaOH) and 10% foetal calf serum. Before the experiments, medium was removed, cells were washed with PBS/EDTA (140 mM NaCl, 1 mM Na2-EDTA, 8 mM Na2HPO4.2H2O, 8.5 mM KH2PO4, 2.7 mM KCl, 21 mM glucose), resuspended in stimulation buffer (HBSS 1×, IBMX 1 mM, Hepes 5 mM, MgCl2 10 mM, BSA 0.1%, pH 7.4). Cells were diluted to a concentration of 10^6 cells/ml for hCB2 experiments. Assays were performed using the cAMP Dynamic HTRF kit (CIS bio international, France) according to the recommendations of the manufacturer.
For CB2, each well of a 384 flat bottom black polystyrene assay plate (Costar) was filled with 10 μl stimulation buffer containing 15 μM forskolin and either test compound (in 3% DMSO), 3% DMSO or 10 μM Win55212-2 (in 3% DMSO). Then, 20 μl of the diluted hCB2-CHO-K1 cells was added (20,000 cells/well). After 30 minutes incubation in dark at room temperature, 10 μl cAMP-XL665 and 10 μl anti-cAMP cryptate (both at a final dilution of 1/100) was added to the cells.
After equilibration of the reaction mixtures for 1 to 24 hours in dark at room temperature, fluorescence was measured at 665 nm and 620 nm using a Discovery microplate fluorescence counter (Perkin Elmer), and the signal ratio of 665 nm/620 nm was calculated. The signal ratios of the test compounds were expressed relative to the signal ratios of the DMSO control (maximal signal ratio, no inhibition of cAMP) and WIN55212-2 for hCB2, respectively (minimal signal ratio, maximal inhibition of cAMP). From the dose response curves generated for each test compound, the dose at which 50% of the maximal inhibition of cAMP level is observed (EC50, expressed in the Table as pEC50=−log (EC50) values) and the level of inhibition reached with 10 μM of the test compound compared to WIN55212-2 (for hCB2) was calculated.

T1 sequence (P34972 whole entry): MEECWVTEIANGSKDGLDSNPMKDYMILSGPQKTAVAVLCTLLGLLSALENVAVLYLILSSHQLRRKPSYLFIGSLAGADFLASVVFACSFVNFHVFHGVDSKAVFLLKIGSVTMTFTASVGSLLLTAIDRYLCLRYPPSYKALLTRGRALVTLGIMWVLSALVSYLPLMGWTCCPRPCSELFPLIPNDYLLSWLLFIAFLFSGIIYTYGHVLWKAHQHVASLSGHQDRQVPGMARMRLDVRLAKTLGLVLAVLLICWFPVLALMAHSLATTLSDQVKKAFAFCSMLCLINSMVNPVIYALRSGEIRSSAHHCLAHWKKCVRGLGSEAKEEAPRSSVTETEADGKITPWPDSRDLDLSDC

SMILES | LAD (Lowest Acceptable Dose) at which lowering of body temperature was observed in more than half of the treated animals [1] | melting point | EC50 [2]
CCS(=O)(=O)c1ccc2c(c1)nc(C(C)(C)C)n2CC1CCN(C(C)=O)CC1 [Co. No. 1] | >40 mg/kg |  | 
CC(=O)N1CCC(Cn2c(C(C)(C)C)nc3cc(S(=O)(=O)CCCC(F)(F)F)ccc32)CC1 [Co. No. 3] | >40 mg/kg |  | 
CCS(=O)(=O)c1ccc2c(c1)nc(C(C)(C)C)n2CC1CCN(C=O)CC1 [Co. No. 28] | >40 mg/kg |  | 
CCS(=O)(=O)c1ccc2c(c1)nc(C(C)(C)C)n2CC1CCS(=O)(=O)CC1 [Co. No. 29] | >40 mg/kg |  | 
CC(=O)N1CCC(Cn2c(C(C)(C)C)nc3cc(S(=O)(=O)c4ccncc4)ccc32)CC1 [Co. No. 34] | >40 mg/kg |  | 
CC(=O)N1CCC(Cn2c(C(C)(C)C)nc3cc(S(=O)(=O)C4CCCC4)ccc32)CC1 [Co. No. 35] | >40 mg/kg |  | 
CCS(=O)(=O)c1ccc2c(c1)nc(CC(C)(C)C)n2CC1CCN(C(C)=O)CC1 [Co. No. 46] | >40 mg/kg |  | 
CC(C)(C)c1nc2cc(S(=O)(=O)CCCC(F)(F)F)ccc2n1CC1CCOCC1 [Co. No. B, reference compound] | 10 mg/kg |  | 
CC(C)(C)c1nc2cc(S(=O)(=O)C3CCCC3)ccc2n1CC1CCOCC1 [Co. No. C, reference compound] | 5 mg/kg |  | 
CC(C)(C)c1nc2cc(S(=O)(=O)c3ccncc3)ccc2n1CC1CCOCC1 [Co. No. D, reference compound] | 10 mg/kg |  | 
CCS(=O)(=O)c1ccc2c(c1)nc(C(C)(C)C)n2CC1CCOCC1 [Co. No. F, reference compound] | 10 mg/kg |  | 
CCS(=O)(=O)c1ccc2c(c1)nc(CC(C)(C)C)n2CC1CCN(C(C)=O)CC1 [compound 46] |  | 152 to 155 °C | 53.7 nM
CCS(=O)(=O)c1ccc2c(c1)nc(CC(C)(C)C)n2CC1CCN(C=O)CC1 [compound 48] |  | 166 to 168 °C | 69.2 nM
CC(C)(C)c1nc2cc(S(=O)(=O)c3nccs3)ccc2n1CC1CCN(C=O)CC1 [compound 49] |  | 190 °C | 7.41 nM
CC(=O)N1CCC(Cn2c(C(C)(C)C)nc3cc(S(=O)(=O)c4ccccn4)ccc32)CC1 [compound 53] |  | 205 °C | 2.95 nM
CC(=O)N1CCC(Cn2c(C(C)(C)C)nc3cc(S(=O)(=O)c4ccc(F)cc4)ccc32)CC1 [compound 59] |  | 186 °C | 2.75 nM
CC(=O)N1CCC(Cn2c(C(C)(C)C)nc3cc(S(=O)(=O)c4c(Cl)cccc4Cl)ccc32)CC1 [compound 60] |  | 224 °C | 3.47 nM
CCCC(CCC)S(=O)(=O)c1ccc2c(c1)nc(C(C)(C)C)n2CC1CCN(C(C)=O)CC1 [compound 67] |  | 132 °C | 2.75 nM
CC(=O)N1CCC(Cn2c(C(C)(C)C)nc3cc(S(=O)(=O)c4cccs4)ccc32)CC1 [compound 68] |  | 187 °C | 2.95 nM
CC(=O)N1CCC(Cn2c(C(C)(C)C)nc3cc(S(=O)(=O)c4ccccc4Cl)ccc32)CC1 [compound 71] |  | 218 °C | 7.41 nM
COc1cccc(S(=O)(=O)c2ccc3c(c2)nc(C(C)(C)C)n3CC2CCN(C(C)=O)CC2)c1 [compound 82] |  | 164 °C | 2.19 nM
CC(=O)N1CCC(Cn2c(C(C)(C)C)nc3cc(S(=O)(=O)c4cccc(C#N)c4)ccc32)CC1 [compound 84] |  | 191 °C | 3.31 nM
CC(=O)N1CCC(Cn2c(C(C)(C)C)nc3cc(S(=O)(=O)c4ccc(C(F)(F)F)cc4)ccc32)CC1 [compound 88] |  | 189 °C | 0.537 nM
CC(=O)N1CCC(Cn2c(C(C)(C)C)nc3cc(S(=O)(=O)c4cccc(Cl)c4)ccc32)CC1 [compound 90] |  | 192 °C | 0.741 nM
